# Source: patent US20040171086A1, “Selective modulation of TLR-mediated biological activity” (3M Innovative Properties Company, priority 2003, published 2004)
# Assays:
# TLR6 = target: T1, TLR6 (Homo sapiens, UniProt Q9Y2C9); assay: IFN-α1-luciferase reporter assay in genetically modified Namalwa cells, TLR6; type: cell-based; conditions: 10 μM IRM, 18 hours
# T1 construct: expressed in transfected cells; host or cells: Namalwa (ATCC CRL-1432), pCI-TLR6 vector, G418 selected
# T1 sequence (Q9Y2C9 32-796): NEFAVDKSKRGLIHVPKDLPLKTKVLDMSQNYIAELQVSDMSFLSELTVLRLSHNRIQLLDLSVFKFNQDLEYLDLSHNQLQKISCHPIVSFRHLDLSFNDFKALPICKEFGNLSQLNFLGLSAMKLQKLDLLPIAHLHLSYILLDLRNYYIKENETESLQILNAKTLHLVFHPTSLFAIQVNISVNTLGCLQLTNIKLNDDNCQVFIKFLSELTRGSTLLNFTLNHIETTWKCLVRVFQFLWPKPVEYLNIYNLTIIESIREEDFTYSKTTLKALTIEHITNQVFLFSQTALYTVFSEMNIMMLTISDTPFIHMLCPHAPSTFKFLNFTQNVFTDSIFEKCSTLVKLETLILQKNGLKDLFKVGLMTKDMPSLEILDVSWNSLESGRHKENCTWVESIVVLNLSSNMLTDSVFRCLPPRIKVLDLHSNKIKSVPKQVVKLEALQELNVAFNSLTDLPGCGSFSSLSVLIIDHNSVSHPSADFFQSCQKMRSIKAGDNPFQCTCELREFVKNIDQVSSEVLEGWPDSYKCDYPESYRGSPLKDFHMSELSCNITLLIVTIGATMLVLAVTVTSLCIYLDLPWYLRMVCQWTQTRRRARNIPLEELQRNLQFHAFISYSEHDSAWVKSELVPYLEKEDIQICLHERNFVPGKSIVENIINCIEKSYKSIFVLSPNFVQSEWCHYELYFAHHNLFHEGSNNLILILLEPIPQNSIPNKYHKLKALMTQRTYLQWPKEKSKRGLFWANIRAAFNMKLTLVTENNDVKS
# Procedure: Results are shown in Table 6 and are expressed as fold induction of IFN-α1 —induced luciferase signal, again with respect to a vehicle control.
# The assay identified TLR6-selective compounds (i.e., compounds that modulate TLR6-mediated activity, but not TLR7-mediated activity), TLR7-selective compounds (compounds that modulate TLR7-mediated activity, but not TLR6-mediated activity), and compounds that modulate cellular activity through both TLR6 and TLR7.
# Unless otherwise indicated, all incubations were performed at 37° C. with 5% CO2 at 98% humidity.
# Culture medium was prepared from complete RPMI 1640 medium (BioSource International, Inc., Camarillo, Calif.). Fetal bovine serum (Atlas Biologicals, Inc., Ft. Collins, Colo.) was added to a final concentration of 7.5% (vol/vol); L-glutamine (BioSource International, Inc.) was added to 5 mM; and sodium pyruvate (BioSource International, Inc.) was added to 1 mM.
# Namalwa cells were grown by incubation in culture medium overnight. Cells were harvested by centrifugation in a tabletop centrifuge (1200 RPM for 5 minutes), and then resuspended in phosphate buffered sucrose to a concentration of 1.3×10^7 cells/mL.
# For each transfection, a 750 μL aliquot of the cell suspension was placed in an electroporation cuvette with 4 mm gaps. 10 μg of the pIFN-α1-luc vector and 10 μg of the pCI-TLR6 vector were added to the electroporation cuvette. The cell and vector mixtures were incubated at room temperature for 5 minutes. The cells were electroporated using a BioRad Gene Pulser (BioRad Laboratories, Hercules, Calif.) set to at 500 μF capacitance and […], then incubated at room temperature for 5 minutes.
# The electroporated cells were suspended in 10 mLs of culture medium and incubated overnight. Dead cells and debris were removed after 24 hours using a MACS Dead Cell Removal kit (Miltenyi Biotec, Auburn, Calif.). Cells were resuspended in 10 mL of culture medium and incubated for an additional 24 hours.
# Transfected cells were selected by adding G418 (Promega Corp., Madison, Wis.) to a final concentration of 1 mg/mL and incubating the cells for seven days.
# The selected transfected cells were counted and resuspended to a concentration of 1×10^6 cell per mL in culture medium. 100 μl aliquots of cells were placed in the wells of a white-walled, white-bottomed 96-well plate (Corning, Inc., Corning, N.Y.). 1.0 μL of an IRM compound from Table 1 (prepared at 1 mM in 100% DMSO) was added to some cell aliquots so that the final concentration of IRM compound was 10 μM. As a positive control, some cell aliquots were incubated with Sendai virus instead of IRM compound. As a negative control, some cell aliquots were incubated with DMSO without IRM compound. In all cases, the cells were incubated for 18 hours.
# The plates were equilibrated to room temperature before one volume of reconstituted LucLight Plus (Packard Instruments, Meriden, Conn.) was added to each aliquot of cells. Each well of the plate was read on an LJL Analyst (LJL Biosystems, Inc., Sunnyvale, Calif.) set with a 5 minute dark adapt. Results are shown in Table 6 and are expressed as fold increase of the IFN-αl—induced luciferase signal compared to a DMSO control.
# [1] = tested on: myeloid dendritic cells (mDCs); assay: Activation of blood myeloid dendritic cells (CD80/HLA-DR staining, flow cytometry); type: cell-based, human; conditions: two donors; 1 μM IRM or 3 μM CpG2216, 16-24 hours; HLA-DR positive with increased CD80; FIG. 1
# Procedure: The blood myeloid dendritic cells (mDC) were isolated from the BDCA-4 negative cell fraction using the Miltenyi Microbead technology system (Miltenyi BioTec, Auburn, Calif.). Cells were resuspended in 4° C. separation buffer (PBS- pH 7.2, 0.5% BSA-2.5 gm, 2 mM 0.5M EDTA) at 20 μl per 10^7 total cells. […] The cells were resuspended in 500 μL of separation buffer per 10^8 total cells. […] BDCA-1^+mDCs were enriched using the Miltenyi Automacs POSSELD software. The cells retained in the column were eluted into a sterile 50 mL polystyrene conical tube.
# (§1) Compounds, reconstituted in dimethyl sulfoxide (DMSO, sterile cell culture grade, Sigma Chemical Co., St. Louis, Mo.) were added at 2× their final concentration to a 96-well flat-bottom sterile tissue culture polystyrene plate (Benton Dickinson Labware, Franklin Lakes, N.J.). Cells were then added at 2× the final concentration (final cell concentration is 1×10^6 cells/mL). Plates were incubated for 16-24 hours at 37° C., 5% CO2. After incubation, plates were centrifuged at 1000 RPM for 10 minutes at 25° C. Supernatants were transferred to a 0.75 mL sterile polypropylene Matrix box (Matrix, Hudson, N.Y.) and stored at −20° C. for future cytokine analysis.
# [2] = tested on: plasmacytoid dendritic cells (pDCs); assay: Activation of plasmacytoid dendritic cells (CD80/HLA-DR staining, flow cytometry); type: cell-based, human; conditions: two donors; 1 μM IRM or 3 μM CpG2216, 16-24 hours; HLA-DR positive with increased CD80; FIG. 2
# Procedure: The cells were resuspended in 500 μL of separation buffer per 10^8 total cells. […] The cells retained in the column were eluted into a sterile 50 mL polystyrene conical tube.
# as §1
SMILES,TLR6: fold increase of the IFN-α1-induced luciferase signal compared to a DMSO control (TLR6),activation of myeloid dendritic cells (mDCs) in vitro [1],activation of plasmacytoid dendritic cells (pDCs) in vitro [2]
"CCOCc1nc2c(N)nc3ccccc3c2n1CC(C)C [IRM1, 2-(ethoxymethyl)-1-(2-methylpropyl)-1H-imidazo[4,5-c]quinolin-4-amine]",7.93 fold increase,–,–
"COCCc1nc2c(N)nc3ccccc3c2n1CCOCCN(C)C(=O)C1CCCCC1 [IRM3, N-(2-{2-[4-amino-2-(2-methoxyethyl)-1H-imidazo[4,5-c]quinolin-1-yl]ethoxy}ethyl)-N-methylcyclohexanecarboxamide]",10.24 fold increase,–,–
"CCCCc1nc2c(N)nc3ccccc3c2n1CCCCCS(C)(=O)=O [IRM6, 2-butyl-1-[5-(methylsulfonyl)pentyl]-1H-imidazo[4,5-c]quinolin-4-amine]",13.61 fold increase,–,–
"CCc1nc2c(N)nc3ccccc3c2n1CCCCNC(=O)C1CCCCC1 [IRM8, N-[4-(4-amino-2-ethyl-1H-imidazo[4,5-c]quinolin-1-yl)butyl]cyclohexanecarboxamide]",12.49 fold increase,–,–
"CCc1nc2c(N)nc3ccccc3c2n1CCCCSc1cc(Cl)cc(Cl)c1 [IRM14, 1-{4-[(3,5-dichlorophenyl)thio]butyl}-2-ethyl-1H-imidazo[4,5-c]quinolin-4-amine]",2.73 fold increase,–,–
"CCOCc1nc2c(N)nc3c(c2n1CC(C)(C)O)CCCC3 [IRM16, 4-amino-2-ethoxymethyl-α,α-dimethyl-6,7,8,9-tetrahydro-1H-imidazo[4,5-c]quinoline-1-ethanol]",12.95 fold increase,activated,activated
"COCCc1nc2c(N)nc3ccccc3c2n1CCOCCNC(=O)Nc1ccccc1 [IRM19, N-(2-{2-[4-amino-2-(2-methoxyethyl)-1H-imidazo[4,5-c]quinolin-1-yl)ethoxy}ethyl)-N′-phenylurea]",12.60 fold increase,–,–
"CCC(C)NC(=S)NCCn1c(CCOC)nc2c(N)nc3ccccc3c21 (centres unmarked) [IRM21, N-{2-[4-amino-2-(2-methoxyethyl)-1H-imidazo[4,5-c]quinolin-1-yl]ethyl}-N′-sec-butylthiourea]",17.98 fold increase,–,–
"COCCc1nc2c(N)nc3c(c2n1CC(C)(C)NS(C)(=O)=O)CCCC3 [IRM22, N-{2-[4-amino-2-(2-methoxyethyl)-6,7,8,9-tetrahydro-1H-imidazo[4,5-c]quinolin-1-yl]-1,1-dimethylethyl}methanesulfonamide]",16.25 fold increase,–,–
